Assay results taken from ChEMBL document CHEMBL3991601, “The target landscape of clinical kinase drugs” (Science, 2017).
Calls of active or inactive are those of the source. Rule as the data show it, for most assays here: actives have a measured Kd and inactives only a lower limit.

target: Ribosomal protein S6 kinase alpha-6 (Homo sapiens, UniProt Q9UK32)
Also: in the data inactive means no Kd found up to 30 µM.

Sequence of Ribosomal protein S6 kinase alpha-6 (Q9UK32 whole entry): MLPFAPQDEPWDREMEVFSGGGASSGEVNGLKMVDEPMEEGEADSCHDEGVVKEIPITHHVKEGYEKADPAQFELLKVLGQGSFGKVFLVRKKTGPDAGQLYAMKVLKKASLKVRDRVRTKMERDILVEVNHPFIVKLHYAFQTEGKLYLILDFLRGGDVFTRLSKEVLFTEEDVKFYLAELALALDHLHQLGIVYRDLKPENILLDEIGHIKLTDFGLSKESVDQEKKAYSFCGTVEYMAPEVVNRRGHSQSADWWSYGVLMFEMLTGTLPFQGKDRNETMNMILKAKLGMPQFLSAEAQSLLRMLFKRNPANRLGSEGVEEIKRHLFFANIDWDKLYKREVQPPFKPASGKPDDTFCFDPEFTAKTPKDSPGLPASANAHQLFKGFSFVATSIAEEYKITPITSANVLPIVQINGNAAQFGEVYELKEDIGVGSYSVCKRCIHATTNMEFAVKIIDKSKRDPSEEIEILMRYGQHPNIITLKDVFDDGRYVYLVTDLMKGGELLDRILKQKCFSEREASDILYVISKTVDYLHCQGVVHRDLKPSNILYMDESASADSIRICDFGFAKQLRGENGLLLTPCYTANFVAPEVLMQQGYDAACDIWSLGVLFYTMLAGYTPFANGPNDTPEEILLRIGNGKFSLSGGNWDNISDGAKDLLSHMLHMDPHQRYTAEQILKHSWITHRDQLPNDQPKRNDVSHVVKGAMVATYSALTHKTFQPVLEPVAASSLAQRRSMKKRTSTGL

SMILES | Kd
Cc1cc([C@@H](C)Nc2ccccc2C(=O)O)c2nc(N3CCOCC3)cc(=O)n2c1 [AZD-6482] | > 30 µM (inactive)
COc1ccc(-c2ccc3c(N4CCOC[C@@H]4C)nc(N4CCOC[C@@H]4C)nc3n2)cc1CO [AZD-8055] | > 30 µM (inactive)
Cc1ccc(NC(=O)c2ccc(CN3CC[C@H](N(C)C)C3)c(C(F)(F)F)c2)cc1Nc1nccc(-c2cncnc2)n1 [BAFETINIB] | > 30 µM (inactive)
CCS(=O)(=O)N1CC(CC#N)(n2cc(-c3ncnc4[nH]ccc34)cn2)C1 [BARICITINIB] | > 30 µM (inactive)

target: Casein kinase I isoform gamma-1 (Homo sapiens, UniProt Q9HCP0)
Sequence (Q9HCP0 whole entry, canonical isoform): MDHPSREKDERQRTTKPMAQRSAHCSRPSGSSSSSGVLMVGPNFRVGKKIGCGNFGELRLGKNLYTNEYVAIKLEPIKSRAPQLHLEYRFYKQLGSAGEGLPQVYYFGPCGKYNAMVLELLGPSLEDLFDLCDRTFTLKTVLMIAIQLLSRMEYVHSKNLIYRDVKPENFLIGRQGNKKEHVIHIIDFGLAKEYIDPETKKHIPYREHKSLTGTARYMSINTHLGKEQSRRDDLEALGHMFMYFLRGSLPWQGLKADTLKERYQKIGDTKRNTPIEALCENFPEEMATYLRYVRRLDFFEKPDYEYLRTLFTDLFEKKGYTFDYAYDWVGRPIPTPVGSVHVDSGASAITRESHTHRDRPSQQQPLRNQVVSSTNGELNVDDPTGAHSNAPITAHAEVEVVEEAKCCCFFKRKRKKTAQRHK

SMILES | Kd
Cc1cc([C@@H](C)Nc2ccccc2C(=O)O)c2nc(N3CCOCC3)cc(=O)n2c1 [AZD-6482] | > 30 µM (inactive)
COc1ccc(-c2ccc3c(N4CCOC[C@@H]4C)nc(N4CCOC[C@@H]4C)nc3n2)cc1CO [AZD-8055] | > 30 µM (inactive)
Cc1ccc(NC(=O)c2ccc(CN3CC[C@H](N(C)C)C3)c(C(F)(F)F)c2)cc1Nc1nccc(-c2cncnc2)n1 [BAFETINIB] | > 30 µM (inactive)
CCS(=O)(=O)N1CC(CC#N)(n2cc(-c3ncnc4[nH]ccc34)cn2)C1 [BARICITINIB] | 1.75 µM

target: T1, dCTP pyrophosphatase 1 (Homo sapiens, UniProt Q9H773)
T1 sequence (Q9H773 whole entry): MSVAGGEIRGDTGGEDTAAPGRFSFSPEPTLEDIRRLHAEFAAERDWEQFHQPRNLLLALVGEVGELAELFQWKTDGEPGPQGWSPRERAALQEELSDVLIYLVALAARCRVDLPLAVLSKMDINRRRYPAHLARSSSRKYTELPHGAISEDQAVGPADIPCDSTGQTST

SMILES | Kd
Cc1cc([C@@H](C)Nc2ccccc2C(=O)O)c2nc(N3CCOCC3)cc(=O)n2c1 [AZD-6482] | > 30 µM (inactive)
COc1ccc(-c2ccc3c(N4CCOC[C@@H]4C)nc(N4CCOC[C@@H]4C)nc3n2)cc1CO [AZD-8055] | > 30 µM (inactive)
Cc1ccc(NC(=O)c2ccc(CN3CC[C@H](N(C)C)C3)c(C(F)(F)F)c2)cc1Nc1nccc(-c2cncnc2)n1 [BAFETINIB] | > 30 µM (inactive)
CCS(=O)(=O)N1CC(CC#N)(n2cc(-c3ncnc4[nH]ccc34)cn2)C1 [BARICITINIB] | > 30 µM (inactive)

target: Casein kinase I isoform alpha (Homo sapiens, UniProt P48729)
Sequence (P48729 whole entry, canonical isoform): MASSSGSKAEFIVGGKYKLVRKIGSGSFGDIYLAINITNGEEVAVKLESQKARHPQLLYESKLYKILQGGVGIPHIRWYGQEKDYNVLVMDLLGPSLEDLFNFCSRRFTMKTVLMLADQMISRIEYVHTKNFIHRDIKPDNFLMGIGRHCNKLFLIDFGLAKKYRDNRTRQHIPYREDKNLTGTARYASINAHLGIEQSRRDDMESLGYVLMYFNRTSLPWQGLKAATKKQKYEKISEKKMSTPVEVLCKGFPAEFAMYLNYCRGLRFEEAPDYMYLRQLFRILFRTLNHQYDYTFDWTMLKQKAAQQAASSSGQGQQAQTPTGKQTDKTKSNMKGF

SMILES | Kd
Cc1cc([C@@H](C)Nc2ccccc2C(=O)O)c2nc(N3CCOCC3)cc(=O)n2c1 [AZD-6482] | > 30 µM (inactive)
COc1ccc(-c2ccc3c(N4CCOC[C@@H]4C)nc(N4CCOC[C@@H]4C)nc3n2)cc1CO [AZD-8055] | > 30 µM (inactive)
CCS(=O)(=O)N1CC(CC#N)(n2cc(-c3ncnc4[nH]ccc34)cn2)C1 [BARICITINIB] | > 30 µM (inactive)

target: Calcium/calmodulin-dependent protein kinase type II subunit delta (Homo sapiens, UniProt Q13557)
Sequence (Q13557 whole entry): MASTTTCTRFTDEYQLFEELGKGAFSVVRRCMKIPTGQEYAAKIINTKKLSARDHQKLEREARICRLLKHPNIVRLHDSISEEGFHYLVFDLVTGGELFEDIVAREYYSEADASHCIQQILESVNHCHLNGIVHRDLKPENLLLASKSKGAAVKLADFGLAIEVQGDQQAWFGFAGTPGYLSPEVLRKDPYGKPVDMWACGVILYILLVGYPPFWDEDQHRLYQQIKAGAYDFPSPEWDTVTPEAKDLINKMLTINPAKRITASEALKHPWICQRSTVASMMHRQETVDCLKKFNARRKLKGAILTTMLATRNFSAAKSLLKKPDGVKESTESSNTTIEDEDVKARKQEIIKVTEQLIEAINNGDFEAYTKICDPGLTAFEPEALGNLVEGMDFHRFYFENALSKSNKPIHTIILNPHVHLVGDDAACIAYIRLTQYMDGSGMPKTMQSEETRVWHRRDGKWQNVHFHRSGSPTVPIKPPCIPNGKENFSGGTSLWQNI

SMILES | Kd
Cc1cc([C@@H](C)Nc2ccccc2C(=O)O)c2nc(N3CCOCC3)cc(=O)n2c1 [AZD-6482] | > 30 µM (inactive)
COc1ccc(-c2ccc3c(N4CCOC[C@@H]4C)nc(N4CCOC[C@@H]4C)nc3n2)cc1CO [AZD-8055] | > 30 µM (inactive)
Cc1ccc(NC(=O)c2ccc(CN3CC[C@H](N(C)C)C3)c(C(F)(F)F)c2)cc1Nc1nccc(-c2cncnc2)n1 [BAFETINIB] | > 30 µM (inactive)
CCS(=O)(=O)N1CC(CC#N)(n2cc(-c3ncnc4[nH]ccc34)cn2)C1 [BARICITINIB] | 0.312 µM (active)

target: Glycogen synthase kinase-3 alpha (Homo sapiens, UniProt P49840)
Sequence (P49840 whole entry): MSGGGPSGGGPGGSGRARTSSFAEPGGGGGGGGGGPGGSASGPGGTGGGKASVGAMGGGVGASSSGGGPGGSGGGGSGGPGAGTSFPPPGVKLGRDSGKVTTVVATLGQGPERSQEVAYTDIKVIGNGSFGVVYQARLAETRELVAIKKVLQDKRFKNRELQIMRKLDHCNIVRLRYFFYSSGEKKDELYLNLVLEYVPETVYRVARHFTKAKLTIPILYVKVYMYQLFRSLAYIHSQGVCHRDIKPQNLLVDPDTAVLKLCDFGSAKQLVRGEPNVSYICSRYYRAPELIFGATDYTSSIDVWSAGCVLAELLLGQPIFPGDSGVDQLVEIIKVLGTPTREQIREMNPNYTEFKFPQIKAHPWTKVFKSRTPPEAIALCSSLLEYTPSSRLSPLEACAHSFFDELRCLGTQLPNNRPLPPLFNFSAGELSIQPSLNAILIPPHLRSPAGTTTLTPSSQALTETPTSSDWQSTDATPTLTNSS

SMILES | Kd
Cc1cc([C@@H](C)Nc2ccccc2C(=O)O)c2nc(N3CCOCC3)cc(=O)n2c1 [AZD-6482] | > 30 µM (inactive)
COc1ccc(-c2ccc3c(N4CCOC[C@@H]4C)nc(N4CCOC[C@@H]4C)nc3n2)cc1CO [AZD-8055] | > 30 µM (inactive)
Cc1ccc(NC(=O)c2ccc(CN3CC[C@H](N(C)C)C3)c(C(F)(F)F)c2)cc1Nc1nccc(-c2cncnc2)n1 [BAFETINIB] | > 30 µM (inactive)
CCS(=O)(=O)N1CC(CC#N)(n2cc(-c3ncnc4[nH]ccc34)cn2)C1 [BARICITINIB] | > 30 µM (inactive)

target: T2, Discoidin domain-containing receptor 2 (Homo sapiens, UniProt Q16832)
T2 sequence (Q16832 whole entry): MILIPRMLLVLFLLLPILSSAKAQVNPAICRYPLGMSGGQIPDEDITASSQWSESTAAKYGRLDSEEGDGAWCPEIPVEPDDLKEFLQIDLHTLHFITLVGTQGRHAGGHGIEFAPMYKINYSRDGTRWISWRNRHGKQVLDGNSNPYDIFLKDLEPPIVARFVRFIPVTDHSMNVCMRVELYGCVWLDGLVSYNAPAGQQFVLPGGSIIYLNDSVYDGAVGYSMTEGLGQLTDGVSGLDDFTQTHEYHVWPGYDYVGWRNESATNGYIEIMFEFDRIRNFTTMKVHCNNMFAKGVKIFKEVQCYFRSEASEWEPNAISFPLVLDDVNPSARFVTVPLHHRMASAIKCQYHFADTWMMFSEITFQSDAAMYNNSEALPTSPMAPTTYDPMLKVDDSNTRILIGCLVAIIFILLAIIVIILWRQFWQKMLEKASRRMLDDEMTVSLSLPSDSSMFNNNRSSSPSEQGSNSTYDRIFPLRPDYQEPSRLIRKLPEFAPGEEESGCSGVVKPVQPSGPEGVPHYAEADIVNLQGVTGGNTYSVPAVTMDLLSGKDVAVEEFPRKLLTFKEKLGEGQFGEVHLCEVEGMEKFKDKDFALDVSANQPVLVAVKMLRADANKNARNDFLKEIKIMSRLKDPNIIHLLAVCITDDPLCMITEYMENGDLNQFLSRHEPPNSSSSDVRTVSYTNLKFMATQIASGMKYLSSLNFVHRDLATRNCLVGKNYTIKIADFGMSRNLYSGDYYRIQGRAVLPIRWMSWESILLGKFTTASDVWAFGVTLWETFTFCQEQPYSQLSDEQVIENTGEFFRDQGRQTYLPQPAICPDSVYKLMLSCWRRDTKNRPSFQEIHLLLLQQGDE

SMILES | Kd
Cc1cc([C@@H](C)Nc2ccccc2C(=O)O)c2nc(N3CCOCC3)cc(=O)n2c1 [AZD-6482] | > 30 µM (inactive)
COc1ccc(-c2ccc3c(N4CCOC[C@@H]4C)nc(N4CCOC[C@@H]4C)nc3n2)cc1CO [AZD-8055] | > 30 µM (inactive)
Cc1ccc(NC(=O)c2ccc(CN3CC[C@H](N(C)C)C3)c(C(F)(F)F)c2)cc1Nc1nccc(-c2cncnc2)n1 [BAFETINIB] | 0.048 µM (active)
CCS(=O)(=O)N1CC(CC#N)(n2cc(-c3ncnc4[nH]ccc34)cn2)C1 [BARICITINIB] | > 30 µM (inactive)

target: T3, Serine/threonine-protein kinase TAO3 (Homo sapiens, UniProt Q9H2K8)
T3 sequence (Q9H2K8 whole entry): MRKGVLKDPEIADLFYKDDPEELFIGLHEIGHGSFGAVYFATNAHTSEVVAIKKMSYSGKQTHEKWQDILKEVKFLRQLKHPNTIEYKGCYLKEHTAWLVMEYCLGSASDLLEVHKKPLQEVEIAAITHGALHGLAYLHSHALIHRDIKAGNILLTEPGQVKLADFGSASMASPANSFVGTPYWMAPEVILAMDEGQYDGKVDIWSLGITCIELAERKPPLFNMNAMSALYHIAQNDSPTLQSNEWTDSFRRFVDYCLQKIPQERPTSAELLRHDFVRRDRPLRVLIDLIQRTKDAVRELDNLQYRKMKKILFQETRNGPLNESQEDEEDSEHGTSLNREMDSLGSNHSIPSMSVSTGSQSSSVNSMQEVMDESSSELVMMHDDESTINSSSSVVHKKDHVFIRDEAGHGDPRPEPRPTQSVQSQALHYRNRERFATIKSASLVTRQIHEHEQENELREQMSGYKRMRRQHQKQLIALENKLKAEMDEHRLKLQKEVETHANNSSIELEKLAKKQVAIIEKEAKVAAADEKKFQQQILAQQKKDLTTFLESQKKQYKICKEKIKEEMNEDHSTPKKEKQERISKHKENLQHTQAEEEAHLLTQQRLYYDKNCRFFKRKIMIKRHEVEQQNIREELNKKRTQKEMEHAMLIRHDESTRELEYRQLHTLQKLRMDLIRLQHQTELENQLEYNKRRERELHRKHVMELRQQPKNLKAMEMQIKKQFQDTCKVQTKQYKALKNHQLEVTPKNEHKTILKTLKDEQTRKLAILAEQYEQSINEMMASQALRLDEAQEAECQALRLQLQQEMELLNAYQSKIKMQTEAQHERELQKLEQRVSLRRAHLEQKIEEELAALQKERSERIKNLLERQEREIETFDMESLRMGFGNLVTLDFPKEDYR

SMILES | Kd
Cc1cc([C@@H](C)Nc2ccccc2C(=O)O)c2nc(N3CCOCC3)cc(=O)n2c1 [AZD-6482] | > 30 µM (inactive)
COc1ccc(-c2ccc3c(N4CCOC[C@@H]4C)nc(N4CCOC[C@@H]4C)nc3n2)cc1CO [AZD-8055] | > 30 µM (inactive)
Cc1ccc(NC(=O)c2ccc(CN3CC[C@H](N(C)C)C3)c(C(F)(F)F)c2)cc1Nc1nccc(-c2cncnc2)n1 [BAFETINIB] | > 30 µM (inactive)
CCS(=O)(=O)N1CC(CC#N)(n2cc(-c3ncnc4[nH]ccc34)cn2)C1 [BARICITINIB] | > 30 µM (inactive)

target: T4, Cysteine--tRNA ligase, cytoplasmic (Homo sapiens, UniProt P49589)
T4 sequence (P49589 whole entry): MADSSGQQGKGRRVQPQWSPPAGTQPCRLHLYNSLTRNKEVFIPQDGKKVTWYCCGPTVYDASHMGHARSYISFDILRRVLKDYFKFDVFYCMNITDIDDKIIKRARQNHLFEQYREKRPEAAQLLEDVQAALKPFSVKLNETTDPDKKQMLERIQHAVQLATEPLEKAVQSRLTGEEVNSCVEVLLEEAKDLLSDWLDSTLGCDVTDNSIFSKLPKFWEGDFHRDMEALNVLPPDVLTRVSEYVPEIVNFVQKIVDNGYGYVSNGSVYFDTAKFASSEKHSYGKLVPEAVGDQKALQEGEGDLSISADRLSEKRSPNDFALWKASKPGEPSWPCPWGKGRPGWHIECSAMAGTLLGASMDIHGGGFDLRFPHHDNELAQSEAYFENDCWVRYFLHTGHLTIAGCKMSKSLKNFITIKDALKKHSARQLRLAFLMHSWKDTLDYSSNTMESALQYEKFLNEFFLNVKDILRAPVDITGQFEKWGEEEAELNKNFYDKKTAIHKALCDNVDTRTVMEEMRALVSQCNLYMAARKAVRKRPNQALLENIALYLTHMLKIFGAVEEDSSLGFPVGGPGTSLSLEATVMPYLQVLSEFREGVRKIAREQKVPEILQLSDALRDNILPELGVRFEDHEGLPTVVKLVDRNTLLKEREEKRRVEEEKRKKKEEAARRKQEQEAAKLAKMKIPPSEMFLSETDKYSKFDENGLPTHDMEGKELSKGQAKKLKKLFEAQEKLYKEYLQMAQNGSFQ

SMILES | Kd
Cc1cc([C@@H](C)Nc2ccccc2C(=O)O)c2nc(N3CCOCC3)cc(=O)n2c1 [AZD-6482] | > 30 µM (inactive)
COc1ccc(-c2ccc3c(N4CCOC[C@@H]4C)nc(N4CCOC[C@@H]4C)nc3n2)cc1CO [AZD-8055] | > 30 µM (inactive)
Cc1ccc(NC(=O)c2ccc(CN3CC[C@H](N(C)C)C3)c(C(F)(F)F)c2)cc1Nc1nccc(-c2cncnc2)n1 [BAFETINIB] | > 30 µM (inactive)
CCS(=O)(=O)N1CC(CC#N)(n2cc(-c3ncnc4[nH]ccc34)cn2)C1 [BARICITINIB] | > 30 µM (inactive)
